Results published in US20240335431A1, “1-H-PYRROLO[2,3-c]PYRIDINE COMPOUNDS” (Acerta Pharma B.V., priority 2023, published 2024).
Read-outs that look alike come from different tables or passages of the source.

Legend:
[1] = Human hepatocyte intrinsic clearance assay; assay type: in vitro ADME; conditions: human hepatocytes
Method: Human hepatocytes (LiverPool™ 10-Donor Human hepatocytes (Mixed Gender, PEG-free, Product No. S01205, 5 million cells per vial) were obtained from BioreclamationIVT. DMSO was sourced from Solarbio S&T Co Ltd. Leibovitz's L-15 Medium, Williams' Medium E, GlutaMAX™-1 (100×), HEPES, DPBS (10×) and Human Recombinant Insulin Solution were purchased from Gibco. Isotonic Percoll Solution was purchased from GE Healthcare. Fetal Bovine Serum (FBS) was purchased from Corning.
10 mM dexamethasone stock solution was prepared by dissolving 3.9 mg dexamethasone in 1 mL of DMSO. An Isotonic Percoll Solution was prepared by dilution of Percoll with DPBS (10×). 15 mL of Isotonic Percoll Solution (90% Percoll/10% DPBS) was added to 31.25 mL William's E medium containing 500 mL of GlutaMAX™-1 (100×), 750 mL of 1M HEPES, 2.5 mL of 5% FBS, 50 mL of 4 mg/mL Human Recombinant Insulin Solution and 5 mL of the 10 mM dexamethasone stock.
2 mL of 10 mM DMSO stock solutions of test compound were added to 198 mL acetonitrile to produce 100 mmol/L concentration.
The human hepatocyte vial was thawed at 37° C. in a waterbath. Once thawed, contents were poured into a 50 mL conical tube and centrifuged at 100 g for 10 minutes. The thawing medium was poured out and 4 mL L-15 medium was added. The tube was gently shaken to resuspend the hepatocytes and cells were counted with an appropriate cell counter. 247.5 mL of the hepatocyte suspension was transferred into each well of the plate and pre-warmed at 600 rpm and 50° C. to enable the temperature to rise to 37° C.
2.5 mL of the […] test compound solution was added to initiate the reaction (final concentration […]) and incubated at 37° C. with shaking at 900 rpm. At 0.5, 5, 15, 30, 45, 60, 80, 100 and 120 minutes, 20 mL was taken into a quenching solution of acetonitrile containing internal standards. The mix was vortexed at 800 rpm for 2 minutes followed by centrifugation for 20 minutes at 4000 rpm at 4° C. 40 mL of supernatant was transferred into a 96 well analysis plate containing 160 mL of water in each well. The analysis plate was shaken at 100 rpm for 2 minutes prior to analysis by LC-MS/MS.
Peak areas were determined from extracted ion chromatograms. Percent parent remaining was calculated from peak area of test compound. The slope value, k, was determined by linear regression of the natural logarithm of percent parent remaining versus incubation time.
The in vitro intrinsic clearance (in vitro CLint in mL/min/10^6 cells) was determined from the slope value using the following equation: […]
where V is the incubation volume (0.25 mL) and N is the number of hepatocytes per well (0.25×10^6 cells).

MOLM-13 cells = assay: Proliferation assay, MOLM-13 (CellTiter-Glo, 7 days); assay type: cell-based, human
Summary of the method: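 Cells seeded at 125 (MOLM-13), 300 (MV4;11), 75 (OCI-AML3) or 200 (HEL) per well were exposed to 3.16-fold compound dilutions (0.1% DMSO) for 7 days at 37° C. Viability by CellTiter-Glo luminescence, normalized to DMSO (100%) and day-0 plate (0%); IC50 from one-site dose-response fit.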

Compound | HH CLint [1] | IC50 (MOLM-13 cells) | IC50 (MOLM-13 cells; Homo sapiens, MOLM-13, 168 h)
CCN(C(=O)c1cc(F)ccc1-n1c(C)c(C(=O)[C@@H]2CCN(C(=O)[C@@H]3CCC4(CC4)N3)[C@@H](C)C2)c2ccncc21)C(C)C (single isomer, unassigned) [Example 52-2, N-Ethyl-5-fluoro-N-isopropyl-2-(2-methyl-3-((2R*,4S*)-2-methyl-1-((S)-4-azaspiro[2.4]heptane-5-carbonyl)piperidine-4-carbonyl)-1H-pyrrolo[2,3-c]pyridin-1-yl)benzamide] | 3.5 μl/min/1E6 | 48 nM | 
Cc1c(C(=O)[C@@H]2CCN(C(=O)[C@H]3NC[C@@H]4C[C@@H]43)[C@@H](C)C2)c2ccncc2n1-c1ccc(F)cc1C(=O)N(CC(F)(F)F)C(C)C (single isomer, unassigned) [Example 53-3, 2-(3-((2R*,4S*)-1-((1S,2S,5R)-3-Azabicyclo[3.1.0]hexane-2-carbonyl)-2-methylpiperidine-4-carbonyl)-2-methyl-1H-pyrrolo[2,3-c]pyridin-1-yl)-5-fluoro-N-isopropyl-N-(2,2,2-trifluoroethyl)benzamide] | 3.3 μl/min/1E6 | 15 nM | 
Cc1c(C(=O)C2CCN(C(=O)[C@H]3NC[C@@H]4C[C@@H]43)CC2)c2ccncc2n1-c1ccc(F)cc1C(=O)N(C(C)C)C(C)C (single isomer, unassigned) [Example 55-1] | 4.4 μl/min/1E6 | 1260 nM | 
Cc1c(C(=O)C2CCN(C(=O)[C@H]3NC[C@@H]4C[C@@H]43)CC2)c2ccncc2n1-c1ccc(F)cc1C(=O)N(C(C)C)C(C)C (single isomer, unassigned) [Example 55-2] | 4.2 μl/min/1E6 | 25 nM | 
Cc1c(C(=O)C2CCN(C(=O)[C@@H]3CCC(C)(C)N3)CC2)c2ccncc2n1-c1ccc(F)cc1C(=O)N(C(C)C)C(C)C (single isomer, unassigned) [Example 56-1] | 6.9 μl/min/1E6 | 1930 nM | 
Cc1c(C(=O)C2CCN(C(=O)[C@H]3NC[C@@H]4C[C@@H]43)CC2)c2ccncc2n1-c1ccc(F)cc1C(=O)N(C(C)C)[C@H](C)C(F)(F)F (single isomer, unassigned) [Example 57-1] | 3.2 μl/min/1E6 | 93 nM | 
Cc1c(C(=O)C2CCN(C(=O)[C@@H]3CCC4(CC4)N3)CC2)c2ccncc2n1-c1ccc(F)cc1C(=O)N1[C@H](C)COC[C@H]1C (single isomer, unassigned) [Example 58-2] | 1.9 μl/min/1E6 | 37 nM | 
CC(C)N(C(=O)c1cc(F)ccc1-n1cc(C(=O)[C@H]2CCN(C[C@H]3CC[C@H](NS(C)(=O)=O)CC3)C2)c2ccncc21)C(C)C [Example 1, 5-Fluoro-N,N-diisopropyl-2-(3-((S)-1-(((1r,4S)-4-(methylsulfonamido)-cyclohexyl)methyl)pyrrolidine-3-carbonyl)-1H-pyrrolo[2,3-c]pyridin-1-yl)benzamide] | 2.6 μl/min/1E6 |  | 149 nM
CC(C)N(C(=O)c1cc(F)ccc1-n1cc(C(=O)[C@H]2CCN(C(=O)[C@H]3N[C@@H]4CC[C@H]3C4)C2)c2ccncc21)C(C)C [Example 2, 2-(3-((S)-1-((1R,3S,4S)-2-Azabicyclo[2.2.1]heptane-3-carbonyl)pyrrolidine-3-carbonyl)-1H-pyrrolo[2,3-c]pyridin-1-yl)-5-fluoro-N,N-diisopropylbenzamide] | <1.0 μl/min/1E6 |  | 105 nM
CC(C)N(C(=O)c1cc(F)ccc1-n1cc(C(=O)[C@@H]2CCN(C(=O)[C@H]3N[C@@H]4CC[C@H]3C4)C2)c2ccncc21)C(C)C [Example 3, 2-(3-((R)-1-((1R,3S,4S)-2-Azabicyclo[2.2.1]heptane-3-carbonyl)pyrrolidine-3-carbonyl)-1H-pyrrolo[2,3-c]pyridin-1-yl)-5-fluoro-N,N-diisopropylbenzamide] | <1.0 μl/min/1E6 |  | 98 nM
CC(C)N(C(=O)c1cc(F)ccc1-n1cc(C(=O)[C@@H]2CCN(C[C@H]3CC[C@H](NS(C)(=O)=O)CC3)C2)c2ccncc21)C(C)C [Example 4, 5-Fluoro-N,N-diisopropyl-2-(3-((R)-1-(((1r,4R)-4-(methylsulfonamido)-cyclohexyl)methyl)pyrrolidine-3-carbonyl)-1H-pyrrolo[2,3-c]pyridin-1-yl)benzamide] | 2.3 μl/min/1E6 |  | 156 nM
CC(C)N(C(=O)c1cc(F)ccc1-n1cc(C(=O)C2CN(C(=O)[C@H]3N[C@@H]4CC[C@H]3C4)C2)c2ccncc21)C(C)C [Example 5, 2-(3-(1-((1R,3S,4S)-2-Azabicyclo[2.2.1]heptane-3-carbonyl)azetidine-3-carbonyl)-1H-pyrrolo[2,3-c]pyridin-1-yl)-5-fluoro-N,N-diisopropylbenzamide] | <1.0 μl/min/1E6 |  | 74 nM
CC(C)N(C(=O)c1cc(F)ccc1-n1cc(C(=O)C2CN(C(=O)[C@H]3N[C@H]4C[C@@H]3[C@@H](F)C4)C2)c2ccncc21)C(C)C [Example 7, 5-Fluoro-2-(3-(1-((1S,3S,4S,5S)-5-fluoro-2-azabicyclo[2.2.1]heptane-3-carbonyl)azetidine-3-carbonyl)-1H-pyrrolo[2,3-c]pyridin-1-yl)-N,N-diisopropylbenzamide] | 3.2 μl/min/1E6 |  | 63 nM
CCN(C(=O)c1cc(F)ccc1-n1cc(C(=O)C2CN(C(=O)[C@H]3NC4CCC3CC4)C2)c2ccncc21)C(C)C [Example 9, (S)-2-(3-(1-(2-Azabicyclo[2.2.2]octane-3-carbonyl)azetidine-3-carbonyl)-1H-pyrrolo[2,3-c]pyridin-1-yl)-N-ethyl-5-fluoro-N-isopropylbenzamide] | 3.8 μl/min/1E6 |  | 121 nM
CC(C)c1ncccc1-c1cc(F)ccc1-n1cc(C(=O)C2CN(C(=O)[C@H]3N[C@@H]4CC[C@H]3C4)C2)c2ccncc21 [Example 10, (1-((1R,3S,4S)-2-Azabicyclo[2.2.1]heptane-3-carbonyl)azetidin-3-yl)(1-(4-fluoro-2-(2-isopropylpyridin-3-yl)phenyl)-1H-pyrrolo[2,3-c]pyridin-3-yl)methanone] | <2.2 μl/min/1E6 |  | 23 nM
CC(C)c1cnccc1-c1cc(F)ccc1-n1cc(C(=O)C2CN(C(=O)[C@H]3N[C@@H]4CC[C@H]3C4)C2)c2ccncc21.O=CO [Example 11, (1-((1R,3S,4S)-2-Azabicyclo[2.2.1]heptane-3-carbonyl)azetidin-3-yl)(1-(4-fluoro-2-(3-isopropylpyridin-4-yl)phenyl)-1H-pyrrolo[2,3-c]pyridin-3-yl)methanone 1·formic acid] | <1.0 μl/min/1E6 |  | 50 nM
CC(C)c1ncsc1-c1cc(F)ccc1-n1cc(C(=O)C2CN(C(=O)[C@H]3N[C@@H]4CC[C@H]3C4)C2)c2ccncc21.O=CO [Example 12, (1-((1R,3S,4S)-2-Azabicyclo[2.2.1]heptane-3-carbonyl)azetidin-3-yl)(1-(4-fluoro-2-(4-isopropylthiazol-5-yl)phenyl)-1H-pyrrolo[2,3-c]pyridin-3-yl)methanone 1·formic acid] | 3.9 μl/min/1E6 |  | 102 nM
CC(C)N(C(=O)c1cc(F)ccc1-n1cc(C(=O)C2CN(C(=O)[C@H]3N[C@@H]4CC[C@H]3C4)C2)c2ccnc(F)c21)C(C)C [Example 15, 2-(3-(1-((1R,3S,4S)-2-Azabicyclo[2.2.1]heptane-3-carbonyl)azetidine-3-carbonyl)-7-fluoro-1H-pyrrolo[2,3-c]pyridin-1-yl)-5-fluoro-N,N-diisopropylbenzamide] | 2.9 μl/min/1E6 |  | 98 nM
CC(C)N(C(=O)c1cc(F)ccc1-n1cc(C(=O)C2CCN(C(=O)[C@H]3N[C@@H]4CC[C@H]3C4)CC2)c2ccncc21)C(C)C [Example 16, 2-(3-(1-((1R,3S,4S)-2-Azabicyclo[2.2.1]heptane-3-carbonyl)piperidine-4-carbonyl)-1H-pyrrolo[2,3-c]pyridin-1-yl)-5-fluoro-N,N-diisopropylbenzamide] | <1.0 μl/min/1E6 |  | 35 nM
